Source: patent US10561710B2, “Goblet cell replacement therapy” (University of Pittsburgh—Of the Commonwealth System of …, priority 2014, dated 2020)

Legend:
Format in all cases: in vivo, New Zealand white rabbits
[1] = system: conjunctival goblet cells; experiment: Goblet cell number in treated blebs after modified trabeculectomy; settings: rabbit modified trabeculectomy, average cell number per high-powered field, six central bleb cross-sections, vs untreated
Procedure: FIGS. 4A-4B: Increased goblet cells in treated blebs. […] (FIG. 4A) Goblet cell number was calculated using the average cell number per high-powered field from six consecutive central bleb cross-sections of each specimen. (FIG. 4B) Representative images (Masson's trichrome stain) show the number of conjunctival goblet cells (asterisks).
(§1) In the following studies, modified trabeculectomy was performed in New Zealand white rabbits using a 22 gauge angiocatheter inserted into the anterior chamber. Rabbit eyes were either untreated or treated with IP-10FL (SEQ ID NO: 12) or IP-10p (SEQ ID NO: 13) by intraoperative topical application. Untreated and injured bleb formation was confirmed and assessed weekly after the procedure. All animals were euthanized at the end of the six week study.
Goblet cells were also evaluated in treated and untreated blebs.

bleb tissue [2] = experiment: Collagen in bleb tissue, Masson's trichrome staining with METAMORPH analysis; settings: rabbit modified trabeculectomy, vs untreated
Procedure: FIGS. 3A-3B: Decreased fibrosis in treated blebs. […] Collagen was quantified using Masson's trichrome staining. […] Original magnifications ×100.
as §1
Collagen was quantified using Masson's trichrome staining.

bleb tissue [3] = experiment: Neovascularization in bleb tissue by H&E staining (number of capillaries); settings: rabbit modified trabeculectomy, low-power field in center of injured area, vs untreated
Procedure: FIGS. 2A-2B: Arrested angiogenesis in treated blebs. Neovascularization in the bleb tissue was assessed using H&E staining. (FIG. 2A) Quantitation of the number of capillaries, as determined by morphology, with a low-power field in the center of the injured area is shown in the graph. The data was derived from two independent experiments of at least three globes with each evaluated in three random low-power fields (shown are mean±SD, *P<0.05). […] Original magnifications ×100.
as §1
Next, angiogenesis was evaluated in treated and untreated blebs. Neovascularization in the bleb tissue was assessed by H&E staining.

bleb tissue [4] = experiment: Histological grading of blebs after modified trabeculectomy (H&E, Masson's trichrome); settings: rabbit modified trabeculectomy, intraoperative topical application, six week study, vs untreated
Procedure: as §1
To evaluate histological differences in treated and untreated blebs, the globes were embedded in paraffin and stained with hematoxylin and eosin (H&E) and Masson's trichrome. A-semi quantitative histological grading score was used to assess cellularity, collagen deposition (fibrosis) and inflammation to compare findings between the four animal groups (uninjured, control (injured), IP-10 full length treated and IP-10p treated).

[5] = system: conjunctival goblet cells; experiment: Goblet cells in blebs treated with MMC, IP-10p or IP-10p as perioperative rescue at MMC surgery; settings: rabbit modified trabeculectomy; MMC alone, or MMC then IP-10p as perioperative rescue
Procedure: FIGS. 5A-5B: Goblet cells in treated and untreated blebs. (FIG. 5A) Goblet cells were evaluated in treated and untreated blebs. Bleb tissue was treated with MMC alone, IP-10p alone, or IP-10p as a perioperative “rescue” treatment at the time of MMC surgery.
Modified trabeculectomy was performed in New Zealand white rabbits using a 22 gauge angiocatheter inserted into the anterior chamber.

Substance	number of goblet cells in bleb tissue [1]	collagen deposition in bleb tissue (bleb tissue [2])	number of capillaries present in blebs (bleb tissue [3])	inflammation and fibrosis (semi-quantitative histological grading score; collagen content, elastic fiber thickness and orientation) (bleb tissue [4])	goblet cells / goblet cell density in bleb tissue [5]
IP-10p: Human IP-10 fragment/variant, SEQ ID NO: 13, PESKAIKNLLKAVSKEMSKRSP	increase in the number of goblet cells	significantly less collagen	significantly reduced the number of capillaries	reduction in inflammation and fibrosis	
IP-10FL: Human IP-10 variant (IP-10FL), SEQ ID NO: 12; CXCR3 activator	increase in the number of goblet cells	significantly less collagen	significantly reduced the number of capillaries	reduction in inflammation and fibrosis	
mitomycin C [MMC]					marked decrease in goblet cells
